In patent US11773094B2, “Farnesoid X receptor agonists and uses thereof” (Metacrine, Inc., priority 2018, dated 2023) one finds EC50 data, which are given here for eight molecules.

pEC50: −log10 of the molar value.

The target in the test is T1, hFXR (Homo sapiens, UniProt Q96RI1).
T1 construct: expressed in transfected cells; host or cells: CV-1 cells
T1 sequence (Q96RI1 1-486): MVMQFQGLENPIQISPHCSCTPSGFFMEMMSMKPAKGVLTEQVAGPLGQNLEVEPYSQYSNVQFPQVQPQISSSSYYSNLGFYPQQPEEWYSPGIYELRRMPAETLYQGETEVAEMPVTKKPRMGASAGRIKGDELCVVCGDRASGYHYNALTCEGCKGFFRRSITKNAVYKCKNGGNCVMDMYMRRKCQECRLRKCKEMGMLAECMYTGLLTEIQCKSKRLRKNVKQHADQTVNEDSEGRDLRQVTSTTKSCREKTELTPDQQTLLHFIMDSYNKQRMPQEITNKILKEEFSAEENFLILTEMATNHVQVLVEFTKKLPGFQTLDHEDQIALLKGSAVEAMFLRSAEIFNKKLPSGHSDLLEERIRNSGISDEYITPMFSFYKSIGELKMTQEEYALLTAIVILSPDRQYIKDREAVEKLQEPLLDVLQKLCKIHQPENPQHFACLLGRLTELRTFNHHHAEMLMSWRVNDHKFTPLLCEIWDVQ
T1 sequence (P19793 1-462 partner): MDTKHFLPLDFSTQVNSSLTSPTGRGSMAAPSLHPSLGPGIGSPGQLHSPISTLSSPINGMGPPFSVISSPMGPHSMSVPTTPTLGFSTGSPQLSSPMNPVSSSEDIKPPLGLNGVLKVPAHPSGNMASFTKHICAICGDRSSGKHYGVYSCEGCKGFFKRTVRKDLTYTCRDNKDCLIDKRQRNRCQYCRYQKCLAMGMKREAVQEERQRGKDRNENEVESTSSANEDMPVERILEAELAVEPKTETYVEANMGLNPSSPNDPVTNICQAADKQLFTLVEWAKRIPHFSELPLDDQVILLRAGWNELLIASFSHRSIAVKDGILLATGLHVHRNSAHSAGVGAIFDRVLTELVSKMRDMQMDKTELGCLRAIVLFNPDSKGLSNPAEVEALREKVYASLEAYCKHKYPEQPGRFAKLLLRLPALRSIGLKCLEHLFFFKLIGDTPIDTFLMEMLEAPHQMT
Briefly: In Vitro FXR Assay (TK): TK-ECRE-luc reporter in transfected CV-1 cells. It counts as cell-based. The conditions noted are these: CV-1 cells transfected with hFXR, hRXR, pCMX-YFP, 18 hrs incubation, luminescence. As for the experimental part: Example B-1: In Vitro FXR Assay (TK)
CV-1 cells were seeded at a density of 2,000,000 cells in a T175 flask with DMEM+10% charcoal double-stripped FBS and incubated at 37° C. in 5% CO2 for 18 h (O/N).
After 18 h of incubation, the medium in the T175 flask was changed with fresh DMEM+10% charcoal super-stripped serum. In a polypropylene tube, 2500 μL OptiMEM (Life Technologies, Cat #31985-062) was combined with expression plasmids for hFXR, hRXR, TK-ECRE-luc and pCMX-YFP. The tube was then briefly vortexed and incubated at room temperature for 5 minutes. Transfection reagent (X-tremeGENE HP from Roche, Cat #06 366 236 001) was added to the OptiMEM/plasmid mixture vortexed and incubated at room temperature for 20 minutes. Following incubation, the transfection reagent/DNA mixture complex was added to cells in the T175 flask and the cells were incubated at 37° C. in 5% CO2 for 18 h (O/N).
Compounds were serially diluted in DMSO and added to transfected CV-1 cells. The cells were then incubated for 18 hrs. The next day cells were lysed and examined for luminescence.

For `COc1ccc(C23CCC(CN(c4cc(-c5cnn(C(C)(C)C)c5)ncn4)C(=O)[C@H]4CC[C@H](OC(=O)N5CC(O)C5)CC4)(CC2)CC3)cc1C` [Compound 2.36, 4-((6-(1-(tert-Butyl)-1H-pyrazol-4-yl)pyrimidin-4-yl)((4-(4-methoxy-3-methylphenyl)bicyclo[2.2.2]octan-1-yl)methyl)carbamoyl) (trans-cyclohexyl) 3-hydroxyazetidine-1-carboxylate], the pEC50 (as a rule, the negative decadic logarithm of the EC50, by convention in mol/L) was 6.00 to 8.00.

`COc1ccc(C23CCC(CN(c4cc(-c5cnn(C(C)(C)C)c5)ccn4)C(=O)[C@H]4CC[C@H](OC(=O)N5CC(CS(C)(=O)=O)C5)CC4)(CC2)CC3)cc1C` [Compound 2.24, 4-((4-(1-(tert-Butyl)-1H-pyrazol-4-yl)pyridin-2-yl)((4-(4-methoxy-3-methylphenyl)bicyclo[2.2.2]octan-1-yl)methyl)carbamoyl) (trans-cyclohexyl) 3-((methylsulfonyl)methyl) azetidine-1-carboxylate] gave a pEC50 not below 8.00. The same measure for `CCC(C)(C)n1cc(-c2ccnc(N(CC34CCC(c5ccc(OC)c(C)c5)(CC3)CC4)C(=O)[C@H]3CC[C@H](OC(=O)N4CCC(O)CC4)CC3)c2)cn1` [Compound 4.02, 4-(((4-(4-Methoxy-3-methylphenyl)bicyclo[2.2.2]octan-1-yl)methyl)(4-(1-(tert-pentyl)-1H-pyrazol-4-yl)pyridin-2-yl)carbamoyl) cyclohexyl trans-4-hydroxypiperidine-1-carboxylate]: not below 8.00; for `COc1ccc(C23CCC(CN(c4cc(-c5cnc(C(C)(C)C)s5)ccn4)C(=O)[C@H]4CC[C@H](OC(=O)N5CC(CO)C5)CC4)(CC2)CC3)cc1C` [Compound 3.08, 4-((4-(2-(tert-Butyl)thiazol-5-yl)pyridin-2-yl)((4-(4-methoxy-3-methylphenyl)bicyclo[2.2.2]octan-1-yl)methyl)carbamoyl) (trans-cyclohexyl) 3-(hydroxymethyl)azetidine-1-carboxylate]: not below 8.00. With `COc1ccc([C@H]2CC[C@H](CN(c3cc(-c4cnc(C(C)(C)C)s4)ccn3)C(=O)[C@H]3CC[C@H](OC(=O)N4CC(O)C4)CC3)CC2)cc1C` [Compound 1.01, trans-4-((4-(2-(tert-Butyl)thiazol-5-yl)pyridin-2-yl)(((trans)-4-(4-methoxy-3-methylphenyl)cyclohexyl)methyl)carbamoyl) cyclohexyl 3-hydroxyazetidine-1-carboxylate], the pEC50 was 6.00 to 8.00. `COc1ccc(C23CCC(CN(c4cc(-c5cnn(C(C)(C)C)c5)ccn4)C(=O)[C@H]4CC[C@H](OC(=O)N5CC[C@@H](O)C5)CC4)(CC2)CC3)cc1C` [Compound 2.33, (R)-4-((4-(1-(tert-Butyl)-1H-pyrazol-4-yl)pyridin-2-yl)((4-(4-methoxy-3-methylphenyl)bicyclo[2.2.2]octan-1-yl)methyl)carbamoyl) cyclohexyl trans-3-hydroxypyrrolidine-1-carboxylate] showed a pEC50 not below 8.00. In turn, `COc1ccc([C@H]2CC[C@H](CN(c3cc(-c4cnc(C(C)(C)C)s4)ccn3)C(=O)[C@H]3CC[C@H](OC(=O)N4CCC(O)CC4)CC3)CC2)cc1C` [Compound 1.03, trans-4-((4-(2-(tert-Butyl)thiazol-5-yl)pyridin-2-yl)(((trans)-4-(4-methoxy-3-methylphenyl)cyclohexyl)methyl)carbamoyl) cyclohexyl 4-hydroxypiperidine-1-carboxylate] gave a pEC50 of 6.00 to 8.00. The molecule `COc1ccc([C@H]2CC[C@H](CN(c3cc(-c4cnn(C(C)(C)C)c4)ccn3)C(=O)[C@H]3CC[C@H](OC(=O)N4CC(O)C4(C)C)CC3)CC2)cc1C` (stereo partly drawn) [Compound 1.09, trans-4-((4-(1-(tert-Butyl)-1H-pyrazol-4-yl)pyridin-2-yl)((trans-4-(4-methoxy-3-methylphenyl)cyclohexyl)methyl)carbamoyl) cyclohexyl 3-hydroxy-2,2-dimethylazetidine-1-carboxylate] gave a pEC50 not below 8.00.
